Test systems include HCT-116; UACC-62; MDA-N; NCI/ADR-RES; LOX IMVI; A498; K562; HOP-62; SN12C; NCI-H522; CCRF-CEM; UO-31; 786-0; SF-539; RXF 393; A549; M14; CAKI-1; IGROV-1; TK-10.
Assay in all cases: NCI tumour cell line growth inhibition, 48 h

SMILES strings stand for the structures.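 Each compound was tested at five concentrations against cells in 96-well plates for 48 hours. Abbreviation: GI50, concentration required for 50% inhibition of growth.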 The source made the active and inactive calls. Rule as the data show it: active = GI50 up to about 1.1 µM and inactive = higher.

Turning to `CN[C@@H]1C[C@H]2O[C@@](C)([C@@H]1OC)n1c3ccccc3c3c4c(c5c6ccccc6n2c5c31)C(=O)N[C@@H]4O`, the GI50 with HCT-116 was 0.144 µM (active); in the test with UACC-62, 0.0282 µM (active); in the test with MDA-N, 0.0574 µM (active); in the test with NCI/ADR-RES, 0.0395 µM (active); in the test on LOX IMVI, 0.0331 µM (active); in the test with A498, < 0.0129 µM (active). Moreover, the GI50 is 0.31 µM (active) with K562; < 0.0134 µM (active) in the test on HOP-62; 0.0208 µM (active) in the test on SN12C; 0.0484 µM (active) in the test with NCI-H522; 0.0165 µM (active) with CCRF-CEM; < 0.0151 µM (active) in the test on UO-31. In addition, the GI50 is 0.0266 µM (active) in the test on 786-0; < 0.0151 µM (active) in the test with SF-539; < 0.0116 µM (active) with RXF 393; 0.0278 µM (active) in the test on A549; 0.0255 µM (active) in the test on M14.
Consider `Cc1cc(=O)oc2c(CN(CCCl)CCCl)c(O)ccc12`, for which the GI50 with HCT-116 is 27.8 µM (inactive); with UACC-62 it was 5.56 µM (inactive); in the test on MDA-N, 78.2 µM (inactive); with NCI/ADR-RES, 71.9 µM (inactive); in the test with LOX IMVI, 10.7 µM (inactive); with A498 it was 62.7 µM (inactive). Moreover, the GI50 in the test with K562 is 34.5 µM (inactive); in the test with HOP-62, 26.5 µM (inactive); with SN12C, 20.7 µM (inactive); in the test with NCI-H522 it was 14.5 µM (inactive); with CCRF-CEM, 2.47 µM (inactive); with UO-31 it was 41.8 µM (inactive). Also, the GI50 was 33.4 µM (inactive) in the test on 786-0; 20.6 µM (inactive) in the test with SF-539; 6.78 µM (inactive) with CAKI-1; 30.5 µM (inactive) with RXF 393; 27.5 µM (inactive) with A549; 55.7 µM (inactive) in the test with IGROV-1. Besides, in the test with M14, the GI50 is 39.8 µM (inactive).
As to `CCOC(=O)Cn1sc2ncc([N+](=O)[O-])cc2c1=O`, the GI50 with HCT-116 is 17.3 µM (inactive); in the test with UACC-62 it was 23 µM (inactive); with MDA-N it was 12.4 µM (inactive); in the test on TK-10, 17.9 µM (inactive); in the test with NCI/ADR-RES it was 13.9 µM (inactive); with LOX IMVI, 13.6 µM (inactive). Also, the GI50 with A498 is > 100 µM (inactive); in the test on K562, 2.84 µM (inactive); in the test on HOP-62 it was 15.4 µM (inactive); in the test with SN12C, 16.6 µM (inactive); in the test with NCI-H522 it was 18.8 µM (inactive); in the test with CCRF-CEM, 2.07 µM (inactive). In addition, the GI50 was 10.1 µM (inactive) in the test with UO-31; 16.9 µM (inactive) with 786-0; 19.5 µM (inactive) with SF-539; 20 µM (inactive) in the test with RXF 393; 19.3 µM (inactive) with A549; 13.2 µM (inactive) in the test on IGROV-1.
In the case of `NC1CC2NC3CCCCC3NC2CC1N` (stereo not given), the GI50 was 24.1 µM (inactive) in the test on HCT-116; 33.6 µM (inactive) with UACC-62; 43.8 µM (inactive) in the test with MDA-N; 41.8 µM (inactive) with TK-10; 30.1 µM (inactive) in the test on NCI/ADR-RES; 31.6 µM (inactive) in the test with LOX IMVI. Further, the GI50 with A498 is 26.8 µM (inactive); with K562 it was 31.8 µM (inactive); in the test with SN12C, 35 µM (inactive); with NCI-H522, 12.6 µM (inactive); in the test with CCRF-CEM, 22.5 µM (inactive); in the test with UO-31, 27 µM (inactive). Further, the GI50 with 786-0 was 30 µM (inactive); in the test with SF-539 it was 80.4 µM (inactive); in the test on CAKI-1, 35 µM (inactive); in the test with RXF 393 it was 23.7 µM (inactive); with A549 it was 58.3 µM (inactive); with IGROV-1 it was 55.2 µM (inactive). Besides, the GI50 in the test on M14 was 67.9 µM (inactive).
`COc1cccc(NC(=O)CC(=O)NN)c1`: the GI50 in the test on HCT-116, in the test with UACC-62, with MDA-N, in the test with TK-10, in the test on NCI/ADR-RES and with LOX IMVI was > 100 µM (inactive) each time. In addition, the GI50 in the test with A498, in the test on K562, with HOP-62, with SN12C, with NCI-H522 and with CCRF-CEM was > 100 µM (inactive) in each case. Also, the GI50 with UO-31, with 786-0, with SF-539, in the test on CAKI-1, with RXF 393 and in the test with A549 was > 100 µM (inactive) each time. Also, the GI50 in the test with IGROV-1 is > 100 µM (inactive).
For `CC(=O)OCC1OC(SC2=NC(=O)/C(=C/c3ccccc3)S2)C(OC(C)=O)C(OC(C)=O)C1OC(C)=O` (stereo not given), the GI50 in the test on HCT-116 was 29.4 µM (inactive); in the test on UACC-62, 21.1 µM (inactive); in the test with MDA-N, 26.8 µM (inactive); in the test on NCI/ADR-RES, 30.4 µM (inactive); in the test on LOX IMVI it was 22.4 µM (inactive); in the test on A498, 29 µM (inactive). In addition, the GI50 in the test with HOP-62 was 38.5 µM (inactive); with SN12C it was 49.8 µM (inactive); in the test with NCI-H522, 32.9 µM (inactive); with CCRF-CEM, 28.4 µM (inactive); in the test on UO-31 it was 23.1 µM (inactive); with 786-0, 16.9 µM (inactive). The GI50 is 23 µM (inactive) with SF-539; 3.78 µM (inactive) in the test on CAKI-1; 26 µM (inactive) in the test on RXF 393; 44 µM (inactive) in the test on A549; 35.8 µM (inactive) in the test with IGROV-1; 31.9 µM (inactive) in the test with M14.
For the compound `Clc1cccc(/C=N/C23CC4CC(CC(C4)C2)C3)c1Cl`, the GI50 is 6.35 µM (inactive) with HCT-116; > 10 µM (inactive) in the test with UACC-62; > 10 µM (inactive) in the test on MDA-N; > 10 µM (inactive) with TK-10; > 10 µM (inactive) with NCI/ADR-RES; > 10 µM (inactive) in the test with LOX IMVI. Also, the GI50 in the test on A498, with K562, in the test on HOP-62, with SN12C, with NCI-H522 and in the test with CCRF-CEM was > 10 µM (inactive) throughout. For the same compound, the GI50 in the test with 786-0, in the test on SF-539, with CAKI-1, with RXF 393, with A549 and in the test on IGROV-1 was > 10 µM (inactive) in each case. Moreover, the GI50 in the test on M14 is > 10 µM (inactive).
In the case of `C=C(C)[C@H]1C=C[C@@H](OC(=O)c2cccnc2)[C@@]23CO[C@@](C)([C@H](OC(=O)c4cccnc4)[C@@]4(OC(C)=O)C[C@H](C)[C@H](OCCC)[C@@H]4[C@H]2OC(C)=O)[C@H]13`, the GI50 with HCT-116 was > 15 µM (inactive); in the test with UACC-62, > 15 µM (inactive); in the test with MDA-N, 10.7 µM (inactive); in the test on TK-10, > 15 µM (inactive); in the test on NCI/ADR-RES, > 15 µM (inactive); in the test with LOX IMVI it was > 15 µM (inactive). The GI50 in the test with A498 was > 15 µM (inactive); with K562, 7.73 µM (inactive); in the test with HOP-62, 10.9 µM (inactive); with SN12C, > 15 µM (inactive); in the test on NCI-H522, > 15 µM (inactive); in the test on CCRF-CEM, 2.84 µM (inactive). The GI50 in the test with UO-31, in the test on 786-0, with SF-539, in the test on CAKI-1, in the test with RXF 393 and in the test with IGROV-1 was > 15 µM (inactive) each time. Further, the GI50 in the test with M14 is 12.7 µM (inactive).
Consider `COC(=O)c1ccc(NCc2cc(O)c3ccccc3c2O)cc1`, for which the GI50 was 15.7 µM (inactive) in the test on HCT-116; 3.67 µM (inactive) with UACC-62; 2.15 µM (inactive) in the test with MDA-N; 24.4 µM (inactive) with TK-10; 27.1 µM (inactive) in the test on NCI/ADR-RES; 3.48 µM (inactive) in the test on LOX IMVI. Also, the GI50 in the test with A498 was 19.8 µM (inactive); with K562 it was 2.59 µM (inactive); in the test on HOP-62, 14.4 µM (inactive); in the test on SN12C, 7.13 µM (inactive); with NCI-H522, 16.1 µM (inactive); in the test on CCRF-CEM, 2.86 µM (inactive). Besides, the GI50 is 13.1 µM (inactive) in the test with UO-31; 16.1 µM (inactive) in the test with 786-0; 15.3 µM (inactive) with SF-539; 6.17 µM (inactive) in the test on CAKI-1; 16.3 µM (inactive) in the test on RXF 393; 10.8 µM (inactive) in the test with A549. The GI50 with IGROV-1 was 11.4 µM (inactive).
As for `Cc1ccccc1S(=O)(=O)OC1NS(=O)(=O)c2ccccc21` (stereo not given), the GI50 in the test with HCT-116, in the test on UACC-62, in the test on MDA-N, in the test on TK-10, in the test on NCI/ADR-RES and in the test on LOX IMVI was > 100 µM (inactive) in each case. Besides, the GI50 with A498, with K562, in the test with HOP-62, with SN12C, with NCI-H522 and in the test on UO-31 was > 100 µM (inactive) throughout. For the same compound, the GI50 in the test with 786-0, with SF-539, with CAKI-1, with RXF 393, with A549 and in the test on IGROV-1 was > 100 µM (inactive) throughout. The GI50 with M14 was > 100 µM (inactive).
For `Nc1ccc2c(c1)S(=O)(=O)c1cc(N)ccc1-2`, the GI50 in the test with HCT-116, in the test with UACC-62, in the test on MDA-N, in the test on TK-10, in the test on NCI/ADR-RES and in the test on LOX IMVI was > 100 µM (inactive) throughout. Also, the GI50 with A498, in the test on K562, with HOP-62, with SN12C, in the test on NCI-H522 and in the test with UO-31 was > 100 µM (inactive) throughout. The GI50 in the test with 786-0, with SF-539, with CAKI-1, in the test with RXF 393, in the test on A549 and with IGROV-1 was > 100 µM (inactive) throughout. Also, the GI50 with M14 was > 100 µM (inactive).

(Values after ChEMBL document CHEMBL1201862, “PubChem BioAssay data set” (2004).)
